The values that follow come from ChEMBL document CHEMBL1201862, “PubChem BioAssay data set” (2004).

Common to all, as to assay: NCI-60 cell line screen, 48 h
Assay [1] has as its system A549.
Assay [2] has as its system 786-0.
Assay [3] deals with SN12C.
For assay [4], the system named is M14.
Assay [5] concerns SK-OV-3.
Assay [6] relates to SF-539.
Assay [7] concerns U-251.
Assay [8] relates to OVCAR-8.
Assay [9] deals with SK-MEL-28.
Assay [10] has as its system HCT-116.
Assay [11] concerns NCI-H460.
Assay [12] has as its system NCI-H522.
Assay [13] deals with KM12.
The subject of assay [14] is Malme-3M.
Assay [15] has as its system NCI-H226.
In assay [16] the test system is HCC 2998.

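Where inhibition never reached the appropriate level, the endpoint shown equals the highest concentration tested. Otherwise, values were interpolated linearly from a five-concentration, 48-hour dose response in 96-well plates. The concentration for 50% growth inhibition is given as GI50.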 Calls of active or inactive are those of the source. No stated cut-off is given here; in the data, active = GI50 up to about 1.1 µM and inactive = higher.

For the molecule `N/C(=N\O)N/N=C/c1ccc(C(F)(F)F)cc1`, the GI50 in assay [1] was 5.15 µM (inactive); in assay [2] it was 9.73 µM (inactive); in [3] it was 24.7 µM (inactive); in assay [4] it was 10.6 µM (inactive); in assay [5] it was 6.98 µM (inactive); in assay [6], 15.8 µM (inactive). In addition, the GI50 in assay [7] was 16.8 µM (inactive); in assay [8], 13.4 µM (inactive); in [9], 62.4 µM (inactive); in assay [10] it was 32.9 µM (inactive); in assay [11] it was 5.04 µM (inactive); in assay [12] it was 10.3 µM (inactive). Further, the GI50 in assay [13] is 13.1 µM (inactive); in assay [14] it was 16.7 µM (inactive).

Take `C[N+](C)(C)Cc1c(CC#N)[nH]c2ccccc12`: the GI50 in [1] was > 100 µM (inactive); in assay [2] it was 24.7 µM (inactive); in [3] it was > 100 µM (inactive); in assay [4], 84.7 µM (inactive); in assay [6], > 100 µM (inactive); in assay [7], > 100 µM (inactive). Besides, the GI50 in assay [8], in assay [9], in assay [15], in assay [16], in assay [10] and in assay [11] was > 100 µM (inactive) each time. Further, the GI50 was 36.8 µM (inactive) in [12], > 100 µM (inactive) in [13] and > 100 µM (inactive) in [14].

On to `COC1OC(CO)C(O)C(O)C1Br` (configuration not stated), for which the GI50 in assay [1], in assay [2], in [3], in [4], in assay [6] and in [7] was > 100 µM (inactive) each time. Moreover, the GI50 in assay [8], in assay [9], in assay [16], in assay [10], in assay [11] and in [12] was > 100 µM (inactive) each time. Further, the GI50 in assay [13] and in assay [14] was > 100 µM (inactive) each time.

In the case of `NC(=O)CCC(NC(=O)Cc1ccccc1)C(=O)O.NC(CCC(=O)NC(=O)Cc1ccccc1)C(=O)O` (configuration not stated), the GI50 in [1], in assay [2], in assay [3], in [4], in [5] and in assay [6] was > 8130 µM (inactive) each time. In addition, the GI50 in assay [7], in [8], in assay [9], in assay [16], in [10] and in assay [12] was > 8130 µM (inactive) each time. The GI50 in assay [13] and in assay [14] was > 8130 µM (inactive) throughout.

`COc1ccc2c3c(c(C(=O)c4ccccc4)oc13)CCC2`: the GI50 in assay [1], in assay [2], in assay [3], in assay [4], in assay [5] and in [6] was > 100 µM (inactive) throughout. Besides, the GI50 in assay [7], in assay [8], in assay [9], in assay [16], in assay [10] and in assay [11] was > 100 µM (inactive) in each case.

As for `Cn1c(C2CC(C)(C)c3c2c2ccccc2n3C)cc2ccccc21` (configuration not stated), the GI50 is > 304 µM (inactive) in assay [1]; > 304 µM (inactive) in assay [2]; > 304 µM (inactive) in [3]; > 304 µM (inactive) in assay [5]; 79.4 µM (inactive) in assay [6]; > 304 µM (inactive) in assay [7]. Moreover, the GI50 in assay [8] is > 304 µM (inactive); in [9], > 304 µM (inactive); in [15] it was 180 µM (inactive); in assay [16], > 304 µM (inactive); in [10], 30.1 µM (inactive); in [11], > 304 µM (inactive). Also, the GI50 in assay [12] is 72.8 µM (inactive); in assay [13], > 304 µM (inactive); in assay [14], > 304 µM (inactive).

For the molecule `COc1ccc2c3c([nH]c2c1[N+](=O)[O-])C(C)N(Cc1ccccc1)CC3` (configuration not stated), the GI50 is 5.05 µM (inactive) in [1]; 4.35 µM (inactive) in assay [2]; 5.81 µM (inactive) in assay [3]; 3.76 µM (inactive) in assay [4]; 1.79 µM (inactive) in assay [6]; 2.67 µM (inactive) in [7]. The GI50 in assay [8] was 3.72 µM (inactive); in [9], 7.69 µM (inactive); in assay [15] it was 4.49 µM (inactive); in assay [16], 11.5 µM (inactive); in assay [10], 3.08 µM (inactive); in assay [11], 2.94 µM (inactive). In assay [13], the GI50 is 3.59 µM (inactive).

In the case of `CC(=O)n1ccc2c(Cl)ncnc21`, the GI50 in assay [1], in [2], in assay [3], in assay [4], in [5] and in assay [6] was > 100 µM (inactive) in each case. Besides, the GI50 in assay [7], in assay [8], in assay [9], in [16], in assay [10] and in [11] was > 100 µM (inactive) in each case. Also, the results for the GI50 in [12] and in assay [13] were > 37.6 µM (inactive) and > 100 µM (inactive), respectively.

As for `O=C(c1ccccc1)c1nc2c(Cl)ccc(Cl)c2cc1C(Br)Br`, the GI50 in assay [1] was 3.08 µM (inactive); in assay [2], 0.286 µM (active); in assay [3], 1.17 µM (inactive); in assay [4] it was 1.4 µM (inactive); in [6], 0.484 µM (active); in [7], 1.11 µM (active). The GI50 in assay [8] was 1.44 µM (inactive); in assay [9], 0.215 µM (active); in [15] it was 1.97 µM (inactive); in [16], 2.06 µM (inactive); in assay [10], 0.375 µM (active); in assay [12], 1.54 µM (inactive). Also, the GI50 in assay [13] is 1.14 µM (inactive); in [14] it was 2.19 µM (inactive).

In the case of `COc1c(C)cc2c(c1O)C1NC(C2)[C@H](O)N2C3COC(=O)[C@@]4(CS[C@@H](c5c(OC(C)=O)c(C)c6c(c53)OCO6)C12)NCCC1=C4NC2C=CC=CC12` (some centres not stated), the GI50 in [1], in assay [2], in assay [3], in assay [4], in assay [6] and in [7] was < 0.01 µM (active) in each case. The GI50 in assay [8], in assay [9], in assay [15], in assay [16], in [10] and in assay [11] was < 0.01 µM (active) throughout. The GI50 in assay [14] is < 0.01 µM (active).

Take `CC/C=C1\N=C(c2ccc(Cl)cc2)OC1=O`: the GI50 in assay [1], in [2], in [3], in assay [4], in [5] and in assay [6] was > 100 µM (inactive) each time. The GI50 in assay [8], in [9], in [15], in assay [16], in assay [11] and in [12] was > 100 µM (inactive) each time. The GI50 in assay [13] and in assay [14] was > 100 µM (inactive) each time.

For the molecule `COc1cc2ccnc(C#N)c2cc1OCc1ccccc1`, the GI50 is > 100 µM (inactive) in [1]; 37.4 µM (inactive) in assay [2]; > 100 µM (inactive) in assay [3]; > 100 µM (inactive) in assay [4]; 49.9 µM (inactive) in [6]; 48 µM (inactive) in assay [7]. Also, the GI50 in assay [8] was > 100 µM (inactive); in [9] it was > 100 µM (inactive); in [16] it was > 100 µM (inactive); in [10], > 100 µM (inactive); in assay [11], > 100 µM (inactive); in [12], 50 µM (inactive). Besides, the GI50 in [13] and in [14] was > 100 µM (inactive) throughout.

Consider `COc1ccc(C2=NC(C)(C)CO2)cc1`, for which the GI50 in assay [1], in assay [2], in assay [3], in assay [6], in [7] and in assay [8] was > 100 µM (inactive) each time. For the same molecule, the GI50 in [9], in assay [10], in assay [11], in [13] and in [14] was > 100 µM (inactive) throughout.

Regarding `CC1CC2CC(=O)CC3(C1)C2CCCN3CCCO` (configuration not stated), the GI50 in assay [1], in assay [2], in assay [3], in assay [4], in assay [5] and in [6] was > 100 µM (inactive) in each case. For the same molecule, the GI50 in assay [7], in [8], in assay [9], in assay [15], in [10] and in [11] was > 100 µM (inactive) throughout. Further, the GI50 in assay [12], in assay [13] and in assay [14] was > 100 µM (inactive) throughout.
